For assay [1], the species on record is Mus musculus. As to the kind of experiment: Tested for apparent affinity on electrically stimulated mouse vas deferens at 10 uM; Inactive. Format: functional, organism-based.
For assay [2], the species on record is Mus musculus. As to the kind of experiment: Tested for antagonistic properties by using NC(1-13)-NH2; In active at 10 uM. The assay is classed as functional, organism-based.
The species entered for assay [3] is Mus musculus. As to the kind of experiment: Tested for maximal effect induced by agonist at 10 uM; Inactive. The assay is classed as functional, organism-based.
The species named for assay [4] is Mus musculus. As to the kind of experiment: Tested for antagonistic properties by using NC(1-13)-NH2 as agonist; Inactive at 10 uM. Format: functional, organism-based.
The species named for assay [5] is Mus musculus. As to the kind of experiment: Tested for apparent affinity on electrically stimulated mouse vas deferens. The assay is classed as functional, organism-based.
The species entered for assay [6] is Mus musculus. Briefly: Tested for maximal effect induced by agonist. Format: functional.
For assay [7], the species on record is Mus musculus. Briefly: Tested for maximal effect induced by agonist at 10 uM; Slight effect was detected. The assay is classed as functional, organism-based.
The species named for assay [8] is Mus musculus. Briefly: Tested for apparent affinity on electrically stimulated mouse vas deferens at 10 uM; Slight effect was detected. Format: functional, organism-based.
The species entered for assay [9] is Mus musculus. As to the kind of experiment: Tested for maximal effect induced by agonist at 10 uM; In active. Format: functional, organism-based.
The species entered for assay [10] is Mus musculus. As to the kind of experiment: Tested for apparent affinity on electrically stimulated mouse vas deferens at 10 uM; In active. Format: functional, organism-based.

pEC50: −log10 of the molar value. Calls of active or inactive are those of the source. The rule behind the calls is not given here. Residues, ends and D or L forms follow the SMILES beside them.

`C[C@H](NC(=O)CNC(=O)[C@@H](NC(=O)[C@H](Cc1ccccc1)NC(=O)CNC(=O)CNC(=O)[C@@H](N)Cc1ccccc1)[C@@H](C)O)C(=O)N[C@@H](CCCN=C(N)N)C(=O)N[C@@H](CCCCN)C(=O)N[C@@H](CO)C(=O)N[C@@H](C)C(=O)N[C@@H](CCCN=C(N)N)C(=O)O`: in the assay listed under Mus musculus [1], the “Log EC50” value is “inactive”. For the same compound, the result in the assay listed under Mus musculus [2] was inactive. Moreover, in the assay listed under Mus musculus [3], the Emax result was “inactive”.

As to H-FGGFTGARK-NH2, the “Log EC50” value in the assay filed under Mus musculus [1] was “inactive”. Besides, the result in the assay listed under Mus musculus [2] was inactive. For the same compound, the Emax entry in the assay filed under Mus musculus [3] is “inactive”.

As to `C=CCN(CC=C)[C@@H](Cc1ccccc1)C(=O)NCC(=O)NCC(=O)N[C@@H](Cc1ccccc1)C(=O)N[C@H](C(=O)NCC(=O)N[C@@H](C)C(=O)N[C@@H](CCCN=C(N)N)C(=O)N[C@@H](CCCCN)C(=O)N[C@@H](CO)C(=O)N[C@@H](C)C(=O)N[C@@H](CCCN=C(N)N)C(=O)N[C@@H](CCCCN)C(N)=O)[C@@H](C)O`, the “Log EC50” value in the assay filed under Mus musculus [1] was “inactive”. Moreover, the outcome in the assay filed under Mus musculus [2] was inactive. The Emax entry in the assay filed under Mus musculus [3] is “inactive”.

As to `NC(=O)[C@H](Cc1ccccc1)NC(=O)CNC(=O)CNC(=O)[C@@H](N)Cc1ccccc1` (H-FGGF-NH2), the “Log EC50” value in the assay listed under Mus musculus [1] was “inactive”. Moreover, the Emax result in the assay filed under Mus musculus [3] was “inactive”. Further, in the assay listed under Mus musculus [4], the outcome was inactive.

As for H-LGGFTGARKSARK-NH2, in the assay listed under Mus musculus [5], the pEC50 was 7.55. Also, the Emax in the assay listed under Mus musculus [6] was -80%.

`CC(C)C[C@H](NC(=O)[C@H](CCCCN)NC(=O)[C@H](CCCNC(=N)N)NC(=O)[C@H](C)NC(=O)[C@H](CO)NC(=O)[C@H](CCCCN)NC(=O)[C@H](CCCNC(=N)N)NC(=O)[C@H](C)NC(=O)CNC(=O)[C@@H](NC(=O)[C@H](Cc1ccccc1)NC(=O)CNC(=O)CNC(=O)[C@@H](N)Cc1ccccc1)[C@@H](C)O)C(=O)N[C@@H](C)C(=O)N[C@@H](CC(N)=O)C(=O)N[C@@H](CCC(N)=O)C(=O)O` [NOCICEPTIN]: the pEC50 in the assay filed under Mus musculus [5] is 7.84. The Emax in the assay filed under Mus musculus [6] is -83%.

On to `C[C@H](NC(=O)CNC(=O)[C@@H](NC(=O)[C@@H](Cc1ccccc1)NC(=O)CNC(=O)CNC(=O)[C@@H](N)Cc1ccccc1)[C@@H](C)O)C(=O)N[C@@H](CCCN=C(N)N)C(=O)N[C@@H](CCCCN)C(=O)N[C@@H](CO)C(=O)N[C@@H](C)C(=O)N[C@@H](CCCN=C(N)N)C(=O)N[C@@H](CCCCN)C(N)=O`, for which, in the assay listed under Mus musculus [7], the Emax entry was “crc incom”. For the same compound, the “Log EC50” value in the assay listed under Mus musculus [8] is “crc incom”. For the same compound, the outcome in the assay listed under Mus musculus [2] was inactive.

Take H-FGGLTGARKSARK-NH2: in the assay filed under Mus musculus [1], the “Log EC50” value was “inactive”. Further, the outcome in the assay listed under Mus musculus [2] was inactive. In the assay listed under Mus musculus [3], the Emax entry is “inactive”.

On to H-FGGFTGARKSAR-NH2, for which the pEC50 in the assay listed under Mus musculus [5] was 6.06. Besides, the Emax in the assay listed under Mus musculus [6] is -79%.

For `C[C@H](NC(=O)CNC(=O)[C@@H](NC(=O)[C@H](Cc1ccccc1)NC(=O)CNC(=O)CNC(=O)[C@@H](N)Cc1ccccc1)[C@@H](C)O)C(=O)N[C@@H](CCCNC(=N)N)C(=O)N[C@@H](CCCCN)C(=O)N[C@@H](CO)C(=O)N[C@@H](C)C(=O)N[C@@H](CCCNC(=N)N)C(=O)N[C@@H](CCCCN)C(N)=O`, the pEC50 in the assay filed under Mus musculus [5] was 7.75. Also, the Emax in the assay filed under Mus musculus [6] was -84%.

As for `C[C@H](NC(=O)CNC(=O)[C@@H](NC(=O)[C@H](Cc1ccccc1)NC(=O)CNC(=O)CNC(=O)[C@@H](N)Cc1ccccc1)[C@@H](C)O)C(=O)N[C@@H](CCCN=C(N)N)C(=O)N[C@@H](CCCCN)C(=O)N[C@@H](CO)C(=O)N[C@@H](C)C(=O)N[C@@H](CCCN=C(N)N)C(=O)N[C@@H](CCCCN)C(=O)O`, the pEC50 in the assay filed under Mus musculus [5] is 5.65. Further, in the assay filed under Mus musculus [6], the Emax was -73%.

In the case of H-FGGFT-NH2, the “Log EC50” value in the assay filed under Mus musculus [1] was “inactive”. In addition, the outcome in the assay filed under Mus musculus [2] was inactive. In the assay filed under Mus musculus [3], the Emax entry is “inactive”.

On to `C[C@H](NC(=O)CNC(=O)[C@@H](NC(=O)[C@H](Cc1ccccc1)NC(=O)CNC(=O)CNC(=O)[C@H](N)Cc1ccccc1)[C@@H](C)O)C(=O)N[C@@H](CCCN=C(N)N)C(=O)N[C@@H](CCCCN)C(=O)N[C@@H](CO)C(=O)N[C@@H](C)C(=O)N[C@@H](CCCN=C(N)N)C(=O)N[C@@H](CCCCN)C(N)=O`, for which, in the assay filed under Mus musculus [7], the Emax result is recorded as “crc incom”. Besides, the “Log EC50” value in the assay filed under Mus musculus [8] is “crc incom”. Further, the result in the assay filed under Mus musculus [2] was inactive.

Take H-FGGFTGAAASARK-NH2: the Emax entry in the assay listed under Mus musculus [7] is “crc incom”. The “Log EC50” value in the assay filed under Mus musculus [8] is “crc incom”. In the assay listed under Mus musculus [2], the result was inactive.

`CC(=O)N[C@@H](Cc1ccccc1)C(=O)NCC(=O)NCC(=O)N[C@@H](Cc1ccccc1)C(=O)N[C@H](C(=O)NCC(=O)N[C@@H](C)C(=O)N[C@@H](CCCN=C(N)N)C(=O)N[C@@H](CCCCN)C(=O)N[C@@H](CO)C(=O)N[C@@H](C)C(=O)N[C@@H](CCCN=C(N)N)C(=O)N[C@@H](CCCCN)C(N)=O)[C@@H](C)O`: in the assay filed under Mus musculus [5], the pEC50 is 5.82. Also, in the assay filed under Mus musculus [6], the Emax was -79%.

For the compound H-FGFTGARKSARK-NH2, the Emax entry in the assay filed under Mus musculus [9] is “inactive”. For the same compound, the outcome in the assay listed under Mus musculus [2] was inactive. The “Log EC50” value in the assay filed under Mus musculus [10] was “inactive”.

As for H-FGGFTGARKSA-NH2, the Emax entry in the assay listed under Mus musculus [7] is “crc incom”. Further, in the assay filed under Mus musculus [8], the “Log EC50” value is listed as “crc incom”. The outcome in the assay listed under Mus musculus [2] was inactive.

Take H-FAAFTGARKSARK-NH2: in the assay listed under Mus musculus [9], the Emax result is “inactive”. The “Log EC50” value in the assay filed under Mus musculus [1] is “inactive”. Further, the result in the assay filed under Mus musculus [2] was inactive.

The term Emax denotes the maximal effect, on the per cent scale that the assay sets. As usually defined, the pEC50 is the EC50 on a negative log10 scale, so that one unit is a factor of ten.

(Values after ChEMBL document CHEMBL1130384, “Address and message sequences for the nociceptin receptor: a structure-activity study of nociceptin-(1-13)-peptide amide” (J Med Chem, 1997).)
